Measured values: US20220218852A1, “NOVEL RADIOLABELLED CXCR4-TARGETING COMPOUNDS FOR DIAGNOSIS AND THERAPY” (PROVINCIAL HEALTH SERVICES AUTHORITY, priority 2019, published 2022)
Positions of bridges follow the written chain, without caps; N, C: chain ends. Non-standard residues stand in square brackets, D forms with d. Residues, ends and D or L forms follow the SMILES beside them. Groups on a side chain read outwards from the residue. *: point of attachment. DOTA = O=C(O)CN1CCN(CC(=O)O)CCN(CC(=O)*)CCN(CC(=O)O)CC1; 2Nal = N[C@@H](Cc1ccc2ccccc2c1)C(=O)O; Lys(iPr) = CC(C)NCCCC[C@H](N)C(=O)O

Legend:
Z138 xenograft = experiment: Dosimetry, Human Extrapolated from Mouse Model, based on Z138 xenograft mice; type: in vivo; settings: Lu-177, Z138 xenograft mice
From the text: (§1) The multi-time-point organ uptake obtained from biodistribution data of ^177Lu-labeled analogs was decayed to their appropriate time-point, fitted to a mono-exponential or bi-exponential model (fit chosen based on R2 and residuals) in Python (version 3.7). The area under the curve was used to compute residence times which were multiplied by model organ mass for human (NURBS model) and mouse (25 g MOBY mouse phantom) for use in OLINDA/EXM software (Hermes Medical Solution; version 2.0) that calculated dosimetry for an average mouse (Stabin et al., J Nucl Med. 2005, 46:1023-1027; Keenan et al., J Nucl Med. 2010, 51:471-476) and extrapolated to an average human male (Segars et al., J Nucl Med. 2001, 42:7; Stabin et al., J Nucl Med. 2012, 53:1807-13).

GRANTA519 xenograft = experiment: Dosimetry, Human Extrapolated from Mouse Model, based on GRANTA519 xenograft mice; type: in vivo; settings: Lu-177, GRANTA519 xenograft mice
From the text: as §1

CC(C)NCCCC[C@@H]1NC(=O)[C@H](Cc2ccc(O)cc2)NC(=O)[C@H](Cc2ccccc2)NC(=O)CC[C@H](C(=O)N[C@@H](CCCCNC(C)C)C(=O)N[C@@H](CCCCNC(=O)[C@H](CCC(=O)O)NC(=O)[C@H](CCC(=O)O)NC(=O)[C@H](CCC(=O)O)NC(=O)CN2CCN(CC(=O)O)CCN(CC(=O)O)CCN(CC(=O)O)CC2)C(N)=O)NC(=O)CNC(=O)[C@H](Cc2ccc3ccccc3c2)NC(=O)[C@@H](CCCNC(=N)N)NC1=O [[^177Lu]Lu-BL02, metal not drawn] (FY[Lys(iPr)][dR][2Nal]G[dE][Lys(iPr)]K([Glu-Glu-Glu-DOTA])-NH2; lactam N-7)
Absorbed Dose, Adrenals (Z138 xenograft; Adrenals): 0.00413 mGy/MBq | Absorbed Dose, Brain (Z138 xenograft; Brain): 4.5e−05 mGy/MBq | Absorbed Dose, Esophagus (Z138 xenograft; Esophagus): 0.000564 mGy/MBq | Absorbed Dose, Eyes (Z138 xenograft; Eyes): 0.000296 mGy/MBq | Absorbed Dose, Gallbladder Wall (Z138 xenograft; Gallbladder Wall): 0.000923 mGy/MBq | Absorbed Dose, Heart (Z138 xenograft; Heart): 0.00148 mGy/MBq | Absorbed Dose, Kidneys (Z138 xenograft; Kidneys): 0.0332 mGy/MBq | Absorbed Dose, Left colon (Z138 xenograft; Left colon): 0.000755 mGy/MBq | Absorbed Dose, Liver (Z138 xenograft; Liver): 0.0183 mGy/MBq | Absorbed Dose, Lungs (Z138 xenograft; Lungs): 0.0126 mGy/MBq | Absorbed Dose, Pancreas (Z138 xenograft; Pancreas): 0.00105 mGy/MBq | Absorbed Dose, Prostate (Z138 xenograft; Prostate): 0.000336 mGy/MBq | Absorbed Dose, Rectum (Z138 xenograft; Rectum): 0.000473 mGy/MBq | Absorbed Dose, Red Marrow (Z138 xenograft; Red Marrow): 0.000377 mGy/MBq | Absorbed Dose, Remainder of the Body (Z138 xenograft; Remainder of the Body): 0.00117 mGy/MBq | Absorbed Dose, Right colon (Z138 xenograft; Right colon): 0.000642 mGy/MBq | Absorbed Dose, Salivary Glands (Z138 xenograft; Salivary Glands): 0.00031 mGy/MBq | Absorbed Dose, Skeleton (Z138 xenograft; Skeleton): 0.000457 mGy/MBq | Absorbed Dose, Small Intestine (Z138 xenograft; Small Intestine): 0.000691 mGy/MBq | Absorbed Dose, Spleen (Z138 xenograft; Spleen): 0.0193 mGy/MBq | Absorbed Dose, Stomach Wall (Z138 xenograft; Stomach Wall): 0.000883 mGy/MBq | Absorbed Dose, Testes (Z138 xenograft; Testes): 0.00168 mGy/MBq | Absorbed Dose, Thymus (Z138 xenograft; Thymus): 0.000454 mGy/MBq | Absorbed Dose, Thyroid (Z138 xenograft; Thyroid): 0.000396 mGy/MBq | Absorbed Dose, Urin Blad (Z138 xenograft; Urin Blad): 0.00032 mGy/MBq | Absorbed Dose, Adrenals (GRANTA519 xenograft; Adrenals): 0.00757 mGy/MBq | Absorbed Dose, Brain (GRANTA519 xenograft; Brain): 7.33e−05 mGy/MBq | Absorbed Dose, Esophagus (GRANTA519 xenograft; Esophagus): 0.00043 mGy/MBq | Absorbed Dose, Eyes (GRANTA519 xenograft; Eyes): 0.000245 mGy/MBq | Absorbed Dose, Gallbladder Wall (GRANTA519 xenograft; Gallbladder Wall): 0.000863 mGy/MBq | Absorbed Dose, Heart (GRANTA519 xenograft; Heart): 0.00148 mGy/MBq | Absorbed Dose, Kidneys (GRANTA519 xenograft; Kidneys): 0.0311 mGy/MBq | Absorbed Dose, Left colon (GRANTA519 xenograft; Left colon): 0.00141 mGy/MBq | Absorbed Dose, Liver (GRANTA519 xenograft; Liver): 0.0185 mGy/MBq | Absorbed Dose, Lungs (GRANTA519 xenograft; Lungs): 0.00333 mGy/MBq | Absorbed Dose, Pancreas (GRANTA519 xenograft; Pancreas): 0.000976 mGy/MBq | Absorbed Dose, Prostate (GRANTA519 xenograft; Prostate): 0.000284 mGy/MBq | Absorbed Dose, Rectum (GRANTA519 xenograft; Rectum): 0.000761 mGy/MBq | Absorbed Dose, Red Marrow (GRANTA519 xenograft; Red Marrow): 0.000343 mGy/MBq | Absorbed Dose, Remainder of the Body (GRANTA519 xenograft; Remainder of the Body): 0.000952 mGy/MBq | Absorbed Dose, Right colon (GRANTA519 xenograft; Right colon): 0.00095 mGy/MBq | Absorbed Dose, Salivary Glands (GRANTA519 xenograft; Salivary Glands): 0.000254 mGy/MBq | Absorbed Dose, Skeleton (GRANTA519 xenograft; Skeleton): 0.000444 mGy/MBq | Absorbed Dose, Small Intestine (GRANTA519 xenograft; Small Intestine): 0.00131 mGy/MBq | Absorbed Dose, Spleen (GRANTA519 xenograft; Spleen): 0.00859 mGy/MBq | Absorbed Dose, Stomach Wall (GRANTA519 xenograft; Stomach Wall): 0.000464 mGy/MBq | Absorbed Dose, Testes (GRANTA519 xenograft; Testes): 0.00245 mGy/MBq | Absorbed Dose, Thymus (GRANTA519 xenograft; Thymus): 0.000336 mGy/MBq | Absorbed Dose, Thyroid (GRANTA519 xenograft; Thyroid): 0.00029 mGy/MBq | Absorbed Dose, Urin Blad (GRANTA519 xenograft; Urin Blad): 0.000269 mGy/MBq
